Test results as given in PubChem BioAssay (NCI).
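Values below derive from 48-hour exposures of cells grown in 96-well plates, with endpoints linearly interpolated between the two concentrations bracketing the appropriate inhibition level. TGI denotes the concentration required for complete inhibition of growth.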

How the values were obtained:
Experiment in all cases: NCI anticancer screen, dose series, 48 h
[1] = test system: 786-0 renal
[2] = test system: COLO 205 colon
[3] = test system: HCT-15 colon
[4] = test system: HL-60(TB) leukemia
[5] = test system: HT29 colon
[6] = test system: IGROV1 ovarian
[7] = test system: KM12 colon
[8] = test system: MOLT-4 leukemia
[9] = test system: NCI-H226 lung
[10] = test system: OVCAR-4 ovarian
[11] = test system: RPMI-8226 leukemia
[12] = test system: SF-295 CNS
[13] = test system: SK-MEL-28 melanoma
[14] = test system: SK-OV-3 ovarian
[15] = test system: SNB-75 CNS
[16] = test system: SW-620 colon
[17] = test system: TK-10 renal
[18] = test system: UACC-62 melanoma

| Compound | TGI [1] | TGI [2] | TGI [3] | TGI [4] | TGI [5] | TGI [6] | TGI [7] | TGI [8] | TGI [9] | TGI [10] | TGI [11] | TGI [12] | TGI [13] | TGI [14] | TGI [15] | TGI [16] | TGI [17] | TGI [18] |
| --- | --- | --- | --- | --- | --- | --- | --- | --- | --- | --- | --- | --- | --- | --- | --- | --- | --- | --- |
| CC1(C)OCN(c2ccc(N3CCOCC3)cc2)Cn2c1nc1ccccc12 | > 100 µM | > 100 µM | > 100 µM | 72.9 µM | > 100 µM | > 100 µM | > 100 µM | > 100 µM | > 100 µM | > 100 µM | 86.6 µM | > 100 µM | > 100 µM | > 100 µM | > 100 µM | > 100 µM | > 100 µM | > 100 µM |
| CCOC(=O)CCC(NC(=O)c1ccc(Nc2nc3ccc(C(F)(F)F)cc3nc2-c2ccccc2)cc1)C(=O)OCC (stereo unspecified) | > 100 µM | 29.7 µM | > 100 µM | > 100 µM | > 100 µM | > 100 µM | > 100 µM | 77.8 µM | > 100 µM | > 100 µM | > 100 µM | > 100 µM | > 100 µM |  | > 100 µM | > 100 µM | > 100 µM | 44.2 µM |
| O=C1COc2cc(NC(=S)Nc3ccccc3)ccc2N1 | > 100 µM | > 100 µM | > 100 µM | > 100 µM | > 100 µM | > 100 µM | > 100 µM | > 100 µM | > 100 µM | > 100 µM | > 100 µM | > 100 µM | > 100 µM | > 100 µM | > 100 µM | > 100 µM | > 100 µM | > 100 µM |
| COc1ccc(-c2c(C(C)=O)c(-c3ccccc3)n(C3OC(CO)C(O)C(O)C3O)c(=S)c2C#N)cc1 (stereo unspecified) | > 100 µM | > 100 µM | > 100 µM | > 100 µM | > 100 µM | > 100 µM | > 100 µM | > 100 µM | > 100 µM | > 100 µM |  | > 100 µM | > 100 µM | > 100 µM |  | > 100 µM | > 100 µM | > 100 µM |
| CC(=O)c1ccc(NC(=O)/C(CC(=O)c2sc(-c3cccnc3)nc2C)=N/NC(N)=O)cc1 | 83.8 µM | 35.2 µM | > 100 µM | 72.9 µM | > 100 µM | > 100 µM | > 100 µM | 46 µM | 75.6 µM | > 100 µM | 54.4 µM | > 100 µM | > 100 µM | > 100 µM |  | > 100 µM |  | > 100 µM |
| CCOC1C(Br)Cn2c(=O)c3cc4ccccc4cc3c(=O)n2C1C (stereo unspecified) | > 100 µM | > 100 µM | > 100 µM | > 100 µM | > 100 µM | > 100 µM | > 100 µM | 94 µM | > 100 µM | > 100 µM | > 100 µM | > 100 µM | > 100 µM | > 100 µM | > 100 µM | > 100 µM | > 100 µM |  |
| CCC(CC)NC1=C(NC(C)=O)C(=O)c2ccccc2C1=O | > 50 µM | > 50 µM | > 50 µM | > 50 µM | > 50 µM | > 50 µM | > 50 µM | > 50 µM | > 50 µM | > 50 µM |  | > 50 µM | > 50 µM | > 50 µM | > 50 µM | > 50 µM | > 50 µM | > 50 µM |
| O=S(Cc1ccccc1)c1nc2ccccc2nc1-c1cccs1 (stereo unspecified) | 23.4 µM | 42.7 µM | 25.5 µM | > 100 µM | 27.1 µM | 29.2 µM | 34.5 µM | > 100 µM | 16.7 µM | 24.6 µM | 68 µM | 52.9 µM | 23.9 µM | 85.4 µM | 36.1 µM |  | 28 µM |  |
| COc1ccc2nc3cc(Cl)ccc3c(Sc3ccc([N+](=O)[O-])cc3C)c2c1 | > 100 µM | 46.1 µM | > 100 µM |  |  | > 100 µM | > 100 µM | > 100 µM | > 100 µM | > 100 µM |  | > 100 µM | > 100 µM | > 100 µM | > 100 µM | > 100 µM | > 100 µM | > 100 µM |
| O=C(Nc1cccc(O)c1)C(=O)C1C(=O)NC(=S)NC1=O | > 100 µM | > 100 µM | > 100 µM | > 100 µM | > 100 µM | > 100 µM |  | > 100 µM | > 100 µM | > 100 µM | > 100 µM | > 100 µM | > 100 µM | > 100 µM | > 100 µM | > 100 µM |  | > 100 µM |
| N#C/C(=C/c1cccc(Oc2ccccc2)c1)c1ccccc1 | > 100 µM | > 100 µM | > 100 µM | > 100 µM | > 100 µM | > 100 µM | > 100 µM | > 100 µM | > 100 µM | > 100 µM | > 100 µM | > 100 µM | > 100 µM | > 100 µM | > 100 µM | > 100 µM | > 100 µM | > 100 µM |
| CCC1=CCN(c2cc(C)ccn2)OC1c1ccc(OC)cc1 (stereo unspecified) | > 100 µM | 33.6 µM | > 100 µM | 50.6 µM | 50.2 µM | > 100 µM | > 100 µM | 82.4 µM | > 100 µM | > 100 µM | 62.6 µM | 70.8 µM | 64.9 µM | > 100 µM | > 100 µM | > 100 µM |  | > 100 µM |
